Consider one compound from patent publication US20230277669A1, “USES OF UROLITHINS” (Amazentis SA, priority 2022, published 2023).

The test system of this assay is Pink1^-/- CD8^+ T cells. Kind of assay: In vitro stimulation of Pink1-/- T cells in presence of UA. It counts as cell-based, Pink1^-/- mice. As to the method: (FIG. 4A) Scheme of CD3+ T-cell activation and analysis for various timepoints in order to investigate mitophagy induction in vitro. (FIG. 4B) Analysis of mitochondrial membrane potential within CD8+ T cells, with TMRM^lo representing cells with low mitochondrial membrane potential. Analysis was performed six hours after stimulation with aCD/aCD28 stimulation beads at the presence of the indicated treatments. N=4 per group, *p < 0.05 by Mann Whitney U test. One of two independent experiments are shown. (FIG. 4C) Representative flow histogram and quantification of lysosome formation in CD8+ cells six hours after in vitro stimulation. MFI shown relative to DMSO controls, n=4. Data are normalised mean ± SD, statistical analysis by two-sided t-test. One out of two independent experiments are shown. (FIG. 4D) Mitotracker Red staining of in vitro stimulated CD8+ cells after 24 hours of Urolithin A (UA25 n=6; UA50 n=6) or vehicle control treatment (DMSO: n=4). A representative flow histogram depicting identification of Mitotracker^hi cells is shown. Data are mean ± SD, statistical analysis was performed by two-sided t-test (*p < 0.05; ***p <0.001; ****p < 0.0001). Experiment was repeated twice. (FIG. 4E) Subset-specific identification of Mitotracker red accumulation after 24 hours of in vitro stimulation either with vehicle control (DMSO) or 50 µM Urolithin A (n=5). Subsets were identified was depicted in the FIGS. 7-9. Data are mean ± SD, statistical analysis by two-sided t-test (* p<0.05, *** p<0.001 and **** p<0.0001). (FIG. 4F) qPCR analysis of various autophagy/mitophagy associated genes of in vitro activated CD3+ cells, 24 h after activation (n=3). Data are ± SEM, statistical analysis was performed by two-sided t-test (*p < 0.05,**p < 0.01). Overall p value is given for the comparison over the entire panel of genes after two-way ANOVA test. (FIG. 4G) Western blot of Parkin protein expression in UA or DMSO (n=3) treated cells after 24 h. Cells were stimulated at the presence of plate-bound aCD3/aCD28 antibodies. […] (FIG. 4H) CD8+ cells from Pink1^-/- mice display deficient mitophagy upon UA treatment in vitro: Lysosome formation in CD8+ of Pink1^-/- mice as assessed by Lysotracker staining 6h post stimulation at the presence of UA or DMSO (n=4). Data are mean ± SD, one out of two independent experiments are shown. (FIG. 4I) CD8+ cells from Pink1^-/- mice display deficient mitophagy upon UA treatment in vitro: Mitotracker red staining of Pink1^-/- CD8+ stimulated in vitro for 48 h, either in the presence of UA or DMSO (n=4). Percentage of Mitotracker^hi CD8+ cells are shown. Data are mean ± SD and acquired via flow cytometry. One out of two independent experiments are shown. Statistical analysis was performed by two-sided t-test (n.s., not significant). (FIG. 4J) CD8+ cells from Pink^-/- mice fail to reprogram to TSCM after UA exposure in vitro: TSCM formation in Pink1^-/- CD8+ cells 48 h after stimulation in the presence of UA (25 µM and 50 µM) and DMSO (n=4, respectively). Data are mean ± SD, statistical analysis was performed by two-sided t-test (***p <0.001). Data depicts results of three independent experiments. (FIG. 4K) Expression of TCF1 in naïve-like CD62L^+CD44^-CD8^+ Pink1^-/- cells. Data are ± SD, depicted as MFI (***p <0.001 by two-sided t-test). (FIG. 4L) Growth curve of Pink1^-/- mice s.c. injected with APTK-organoids, fed UA-rich or control diet as depicted in FIG. 1J. n=4 per group. Data are mean ± SD. (FIG. 4M) Flow cytometry analysis of TIL in Pink ^-^/- mice s.c. transplanted with APTK tumors, fed either UA or control diet. Quantification of TCF1^hi cells among CD8. (FIG. 4N) Quantification of PD1^hi cells among CD8. (FIG. 4O) Quantification of and Tim3^hi cells among CD8. (FIG. 4P) Ex vivo cytokine release assay. TIL of Pink1^-/- from FIG. 4L were stimulated ex vivo with PMA and lonomycin, in the presence of Brefeldin A for three hours. Data depicts percentage of TNFα^hi cells within the CD8+ compartment. All data are mean ± SD (n=4). […]

Regarding `O=c1oc2cc(O)ccc2c2ccc(O)cc12` [Urolithin A], the “TCF-1 in CD44-CD62L+CD8+ T cells” value was “expressed less TCF-1”. The “cytoplasmic expression of Pgam5” value (6 h, upon UA exposure) is listed as “lack of cytoplasmic expression of Pgam5”. Also, the UA-induced lysosome formation result (6h post stimulation) is given as “prevented”. For the setting “48 h”, the PGC-1α expression entry is “failed to enhance” and the “UA-induced decrease in mitochondrial content” value is recorded as “prevented”. Moreover, the TSCM phenotype result (48 h, UA 25 µM and 50 µM) is “failed to exhibit a TSCM phenotype”.
